A short description of series [1]: Cytotoxicity determination in HepG2.2.15 cells (CCK-8). Type of series: cell-based. As to conditions: human, HepG2.2.15 cells, 5,000 cells/well, 6 days of compound treatment, CCK-8 absorbance 450 nm, highest concentration 100 uM. An outline of the steps: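 HepG2.2.15 cells, 5,000/well in 2% FBS medium, treated 6 days with compound (medium refreshed midway), 8-point 3-fold dilutions from 100 uM top. Viability read by CCK-8, 2.5 h at 37° C, absorbance 450 nm with 630 nm reference; CC50 from curve fitting.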

For a further series, the system named is HBV. Description: HBV inhibitory activity in HepG2.2.15 cells (HBV DNA in culture medium by q-PCR). The class given is cell-based. Conditions: Hepatitis B virus, HepG2.2.15, 144 h. An outline of the steps: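 HepG2.2.15 cells (40,000/well, 2% FBS) treated 6 days with compounds, medium refreshed once; 8 points, 3-fold dilution, top 10 uM. Secreted HBV DNA in medium extracted and quantified by q-PCR; EC50 calculated from dose-response.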

Setting [2] is: HepG2.2.15 cells, 40,000 cells/well, 6 days of compound treatment, HBV DNA in culture medium by q-PCR, highest concentration 10 uM, read-out: EC50.

Structures can show the parent of a compound that is named as a salt. Where two headings read alike, the source gives them in different places.

As usually defined, the CC50 is the concentration at which the toxic effect on the cells reaches its halfway point. Read a high CC50 as better tolerance by the cells. For orientation: EC50 means the concentration giving half of the maximal effect. With `COC(=O)C1=C(C2CCc3nc(C(=O)O)oc3C2)NC(c2nccs2)=NC1c1ccc(F)c(F)c1Cl` (stereo not shown) [Compound 78c, lithium 6-(6-(2-chloro-3,4-difluorophenyl)-5-(methoxycarbonyl)-2-(thiazol-2-yl)-3,6-dihydropyrimidin-4-yl)-4,5,6,7-tetrahydrobenzo[d]oxazole-2-carboxylate], the CC50 at 6 days in series [1] is 52 µM. Moreover, the EC50 in the series with HBV is 0.0571 µM.
`COC(=O)C1=C(C2CCc3nn(CCC(=O)O)cc3C2)NC(c2nccs2)=NC1c1ccc(F)cc1C` (stereo not shown) [Compound 80c, 3-(5-(6-(4-fluoro-2-methylphenyl)-5-(methoxycarbonyl)-2-(thiazol-2-yl)-3,6-dihydropyrimidin-4-yl)-4,5,6,7-tetrahydro-2H-indazol-2-yl)propanoic acid] registered a CC50 at 6 days in series [1] (HepG2.2.15 cells) of 33.2 µM. For the same compound, the EC50 in the series on HBV (setting [2]) is 0.0724 µM.
Consider `COC(=O)C1=C(C2CCc3nn(CC(C)(C)C(=O)O)cc3C2)NC(c2nccs2)=NC1c1ccc(F)c(F)c1Cl` (stereo not shown) [Compound 84d, 3-(5-(6-(2-chloro-3,4-difluorophenyl)-5-(methoxycarbonyl)-2-(thiazol-2-yl)-3,6-dihydropyrimidin-4-yl)-4,5,6,7-tetrahydro-2H-indazol-2-yl)-2,2-dimethylpropanoic acid], for which the CC50 at 6 days in series [1] (HepG2.2.15 cells) stood at 16.4 µM. The EC50 in the series with HBV (setting [2]) was 0.0188 µM.
Compound `CCOC(=O)C1=C(C2CCc3nn(CCC(C)(C)C(=O)O)cc3C2)NC(c2nccs2)=NC1c1ccc(F)c(F)c1Cl` (stereo not shown) [Compound 88d, 4-(5-(6-(2-Chloro-3,4-difluorophenyl)-5-(ethoxycarbonyl)-2-(thiazol-2-yl)-3,6-dihydropyrimidin-4-yl)-4,5,6,7-tetrahydro-2H-indazol-2-yl)-2,2-dimethylbutanoic acid] returned a CC50 at 6 days in series [1] (HepG2.2.15 cells) of 9.8 µM. In the series with HBV (setting [2]), the EC50 worked out at 0.0208 µM.
In the same order, the values of `COC(=O)C1=C(C2CCc3nn(CCC(C)(C)C(=O)O)cc3C2)NC(c2nccs2)=NC1c1ccc(F)c(F)c1Cl` (stereo not shown) [Compound 90c, 4-(5-(6-(2-Chloro-3,4-difluorophenyl)-5-(methoxycarbonyl)-2-(thiazol-2-yl)-3,6-dihydropyrimidin-4-yl)-4,5,6,7-tetrahydro-2H-indazol-2-yl)-2,2-dimethylbutanoic acid] are 13.3 µM and 0.0249 µM.
Taken in the same sequence, the figures for `CCOC(=O)C1=C(C2CCc3nn(CC(C)(C)C(=O)O)cc3C2)NC(c2nccs2)=NC1c1ccc(F)c(F)c1C` (stereo not shown) [Compound 92c, 3-(5-(6-(3,4-difluoro-2-methylphenyl)-5-(ethoxycarbonyl)-2-(thiazol-2-yl)-3,6-dihydropyrimidin-4-yl)-4,5,6,7-tetrahydro-2H-indazol-2-yl)-2,2-dimethylpropanoic acid] were 9.3 µM and 0.0079 µM.
`CCOC(=O)C1=C(C2CCc3nn(CC(C)(C)C(=O)O)cc3C2)NC(c2ncc(F)cc2F)=NC1c1ccc(F)c(F)c1Cl` (stereo not shown) [Compound 94c, 3-(5-(6-(2-Chloro-3,4-difluorophenyl)-2-(3,5-difluoropyridin-2-yl)-5-(ethoxycarbonyl)-3,6-dihydropyrimidin-4-yl)-4,5,6,7-tetrahydro-2H-indazol-2-yl)-2,2-dimethylpropanoic acid hydrochloride] registered a CC50 at 6 days in series [1] of 16.5 µM. Besides, in the series with HBV, the EC50 was 0.0071 µM.
The compound `COC(=O)C1=C(C2CCc3nn([C@H]4C[C@@H](C(=O)O)C4)cc3C2)NC(c2nccs2)=NC1c1ccc(F)c(F)c1Cl` (stereo partly drawn) [Compound 96d, (cis)-3-(5-(6-(2-Chloro-3,4-difluorophenyl)-5-(methoxycarbonyl)-2-(thiazol-2-yl)-3,6-dihydropyrimidin-4-yl)-4,5,6,7-tetrahydro-2H-indazol-2-yl)cyclobutanecarboxylic acid] gave a CC50 at 6 days in series [1] (HepG2.2.15 cells) of 19.3 µM. In the series on HBV (setting [2]), the EC50 worked out at 0.0247 µM.

The values are drawn from patent US20210220356A1, “DIHYDROPYRIMIDINE DERIVATIVES AND USES THEREOF IN THE TREATMENT OF HBV INFECTION OR OF HBV-INDUCED DISEASES” (Janssen Sciences Ireland Unlimited Company, priority 2018, published 2021).
